In patent publication US20190121935A1, “PHENOTYPIC PERSONALIZED MEDICINE: ADAPTIVE OPTIMIZATION OF PATIENT-SPECIFIC COMBINATION THERAPY” (THE REGENTS OF THE UNIVERSITY OF CALIFORNIA, priority 2015, published 2019):

How the values were obtained:
[1] = human, in vivo
Experimental: This prospective trial was conducted under IRB#14-001682, IRB#14-001682-AM-00001, and IRB#14-001682-AM-00002 approved by the UCLA Institutional Review Board. Following liver transplant, patients were started on a regimen of tacrolimus, mycophenolate, and methylprednisolone. According to protocol, methylprednisolone dosing was tapered using a 1000-150-[…]-120-80-40-20 mg regimen. Methylprednisolone was subsequently changed to prednisone given at 20 mg which was commonly followed with a tapering protocol. Mycophenolate dosing was administered according to protocols determined by the clinical team. Serum trough levels were taken between 4:00-6:00 AM daily, and a first dose of tacrolimus was administered between 5:00 AM-6:00 AM daily, following the serum trough recording. The clinical team obtained the daily treatment regimen details including drugs already administered, drugs to be administered, hemodialysis to be performed, co-infections, and planned prophylaxis and sent an updated clinical chart for each patient to the FSC team.
Serum levels, drug regimen dosages, and other events such as hemodialysis were obtained every morning prior to analyses. In order to project optimum dosages, a 2nd order polynomial fit for each patient was made from linear regression with mainly two variables, such as trough concentration and tacrolimus dosing amount, and it was used with at least three prior data points for the specific patient.
Statistical analyses were performed by analyzing the accuracy of correlating 2nd order polynomial mapping to the patients' data since patient-specific treatment was conducted in this study. This was accomplished using the coefficient of determination, or R-squared analysis. Values were used to correlate clinical and regression data. Where relevant, statistical significances of all the generated maps for the data analyses were determined using a t-test at α=0.05 level of confidence.

[2] = Retrospective clinical analysis using FSC of liver transplant patient data (tacrolimus serum trough levels, Patients A and B); assay type: in vivo, human; settings: standard of care (clinically observed), target 8-10 ng/ml
Experimental: Retrospective clinical analysis was performed under IRB#14-001682 approved by the UCLA Institutional Review Board. Discharged liver transplantation patient data, such as serum level and drug regimen dosages, were obtained for analyses for the retrospective study. […] In this process, the inclusion of all the drugs as covariates allowed better representation of each patient's data and examination of the effects of drug-drug interactions within each patient's constructed map. Minimum values based on the difference between the individual patient's serum level reading and a target serum level during various small time windows were collected, and these were entered into the globally fitted map of each patient in order to find the optimum dose for that specific patient.

| Serum Result (change of tacrolimus serum trough level on co-administration change) [1] | day from which trough levels deviated permanently from the target range [2] | share of treatment with trough levels outside of the target range [1] | trough reading higher than the anticipated trough level [1] | trough reading lower than the anticipated trough level [1] | SMILES |
| --- | --- | --- | --- | --- | --- |
| +0.7 | – | – | – | – | CC(=O)NC[C@H]1CN(c2ccc(N3CCOCC3)c(F)c2)C(=O)O1 [Linezolid] |
| – | ≥ 15 days | 91% | 0.5 ng/mL | 2.0 ng/mL | C=CC[C@@H]1/C=C(\C)C[C@H](C)C[C@H](OC)[C@H]2O[C@@](O)(C(=O)C(=O)N3CCCC[C@H]3C(=O)O[C@H](/C(C)=C/[C@@H]3CC[C@@H](O)[C@H](OC)C3)[C@H](C)[C@@H](O)CC1=O)[C@H](C)C[C@@H]2OC [tacrolimus] |
